Seven molecules from patent publication US7332476B2, “Pyridyl substituted ketolide antibiotics” (Novartis AG, priority 2003, dated 2008) can be followed below.

Converted amounts (≈) assume the structure as drawn.

Holding throughout (assay): MIC, broth microdilution (NCCLS)
(In general: Dilution methods test growth across graded concentrations, often in twofold steps.)

The test system of experiment [1] is Streptococcus pneumoniae Stpn_Mef 5654. It is filed as cell-based. The settings on record: Table 7, Strain ID K (Table 6): S. pneumoniae Stpn_Mef 5654; in µg/mL (unit assumed). On the procedure:
(§1) Strains. The bacterial isolates listed in Table 4 were cultivated from −70° C. frozen stocks by two consecutive overnight passages (P1, P2) at 35° C. on 5% blood agar (Remel, Lenexa, Kans.). Chocolate agar (Remel) is used for Haemophilus influenzae. H. influenzae and Streptococcus pneumoniae are incubated in 5-10% CO2
(§2) Drug Stock Preparation. To determine the amount of solvent to be used to give the desired final concentration, the formula “weight obtained in mg/final concentration in mg/ml” will be used. It will give the amount of solvent in ml needed to be added to give the desired concentration. For example, if 2.5 mg/ml is the desired concentration and the weight of compound is 13.7 mg, then the amount of solvent to be added is […]. Methanol is used as the solvent to dissolve the test compounds. Further dilution of stock is done in sterile, deionized water. Drug stocks are kept frozen at −70° C., protected from light.
(§3) Susceptibility Testing. MICs are determined by the broth microdilution method in accordance with the NCCLS guidelines. In brief, organism suspensions are adjusted to a 0.5 McFarland standard to yield a final inoculum between 3×10^5 and 7×10^5 CFU/ml. Drug dilutions and inocula are made in sterile, cation adjusted Mueller-Hinton Broth (CAMHB) (Remel) for all but S. pneumoniae [CAMHB with 2-5% lysed horse blood (Remel)] and H. influenzae [Haemophilus Test Medium (Remel)]. An inoculum volume of 100 μl is added to wells containing 100 μl of broth with 2-fold serial dilutions of drug. All inoculated microdilution trays are incubated in ambient air at 35° C. for 18-24 hours, except for S. pneumoniae, and H. influenzae (both at 5-10% CO2).
(§4) Following appropriate incubation, the MIC is determined and the MIC is defined as the lowest concentration of the drug that prevented visible growth.
(§5) Strains. The bacterial isolates listed in Table 8 were cultivated from −70° C. frozen stocks by two consecutive overnight passages (P1, P2) at 35° C. on 5% blood agar (Remel, Lenexa, Kans.). Chocolate agar (Remel) is used for Haemophilus influenzae. H. influenzae and Streptococcus pneumoniae are incubated in 5-10% CO2
(§6) Following appropriate incubation, the MIC is determined and the MIC is defined as the lowest concentration of the drug that prevented visible growth. […] Antibacterial activity of representative compounds of the invention were compared against telitromycin.

Experiment [2] has as its system S. pneumoniae Stpn_Erm 6849. It is filed as cell-based, Streptococcus pneumoniae. The settings on record: Table 7, Strain ID I (Table 6): S. pneumoniae Stpn_Erm 6849. On the procedure: as §1, §2, §3, §4
The subject of experiment [3] is Streptococcus pyogenes Stpy_8668. It is filed as cell-based. As to conditions: Table 7, Strain ID E (Table 6): S. pyogenes Stpy_8668. On the procedure:
as §1, §2, §3, §4, §5, §6

The test system of experiment [4] is Haemophilus influenzae Hain_49247. In kind it is cell-based. As to conditions: Table 7, Strain ID M (Table 6): H. influenzae Hain_49247; unit assumed. On the procedure:
as §1, §2, §3, §4, §5, §6

Experiment [5] concerns Streptococcus pneumoniae Stpn_Mef S 3427. In kind it is cell-based. The settings on record: Table 7, Strain ID L (Table 6): S. pneumoniae Stpn_Mef S 3427. The method, then:
as §1, §2, §3, §4, §5, §6

Experiment [6] concerns Staphylococcus epidermidis Step_14990. In kind it is cell-based. The settings on record: Table 7, Strain ID B (Table 6): S. epidermidis Step_14990; in µg/mL (unit assumed). The method, then: as §1, §2, §3, §4, §5, §6
Experiment [7] has as its system Staphylococcus aureus Stau_29213. It is filed as cell-based. As to conditions: Table 7, Strain ID A (Table 6): S. aureus Stau_29213; in µg/mL (unit assumed). On the procedure:
as §1, §2, §3, §4, §5, §6

Experiment [8] concerns Streptococcus pneumoniae Stpn_Erm S 4297. It is filed as cell-based. The settings on record: Table 7, Strain ID J (Table 6): S. pneumoniae Stpn_Erm S 4297. On the procedure: as §1, §2, §3, §4, §5, §6
Experiment [9] has as its system Enterococcus faecalis Enfa_29212. In kind it is cell-based. As to conditions: Table 7, Strain ID D (Table 6): E. faecalis Enfa_29212; in µg/mL (unit assumed). The method, then: as §1, §2, §3, §4, §5, §6
Experiment [10] concerns Staphylococcus epidermidis Step_f50654. In kind it is cell-based. The settings on record: Table 7, Strain ID C (Table 6): S. epidermidis Step_f50654; in µg/mL (unit assumed). The method, then:
as §1, §2, §3, §4, §5, §6

Experiment [11] relates to Streptococcus pneumoniae Stpn_49619. It is filed as cell-based. The settings on record: Table 7, Strain ID F (Table 6): S. pneumoniae Stpn_49619. On the procedure: as §1, §2, §3, §4, §5, §6
The test system of experiment [12] is Streptococcus pneumoniae Stpn_297-749. It is filed as cell-based. The settings on record: Table 7, Strain ID G (Table 6): S. pneumoniae Stpn_297-749. The method, then: as §1, §2, §3, §4, §5, §6
Experiment [13] relates to Streptococcus pneumoniae Stpn_280-962. It is filed as cell-based. The settings on record: Table 7, Strain ID H (Table 6): S. pneumoniae Stpn_280-962. On the procedure: as §1, §2, §3, §4, §5, §6

Consider `CC[C@H]1OC(=O)[C@@](C)(F)C(=O)[C@H](C)[C@@H](OC2O[C@H](C)C[C@H](N(C)C)[C@H]2O)[C@@](C)(OC)C[C@@H](C)C(=O)[C@H](C)[C@H]2N(CCCCc3ccc4ccccc4n3)C(=O)O[C@]12CC` (stereo partly drawn) [65 (1), (3aS,4R,7S,9R,10R,11S,13R,15R,15aR)-3a,4-DIETHYL-7-FLUORO-11-METHOXY-7,9,11,13,15-PENTAMETHYL-2,6,8,14-TETRAOXO-1-(4-QUINOLIN-2-YLBUTYL)TETRADECAHYDRO-2H-OXACYCLOTETRADECINO[4,3-D][1,3]OXAZOL-10-YL-3,4,6-TRIDEOXY-3-(DIMETHYLAMINO)-D-XYLO-HEXOPYRANOSIDE], for which the MIC in experiment [1] was 0.2; in [2], “=0.05”; in experiment [3], “=0.05”; in experiment [4], 3.13 µg/mL (≈ 3.78 µM); in experiment [5], “=0.05”; in experiment [6] it was 0.2. Further, the MIC was 0.2 in experiment [7], “=0.05” in experiment [8], 0.1 in experiment [9] and 0.2 in experiment [10].
Turning to `C/C=C/[C@]12OC(=O)N(CCCCn3cnc(-c4cccnc4)c3)[C@@H]1[C@@H](C)C(=O)[C@H](C)C[C@](C)(OC)[C@H](OC1O[C@H](C)C[C@H](N(C)C)[C@H]1O)[C@@H](C)C(=O)[C@@H](C)C(=O)O[C@@H]2CC` (stereo partly drawn) [65 (2), (3aS,4R,7R,9R,10R,11S,13R,15R,15aR)-4-ETHYL-11-METHOXY-7,9,11,13,15-PENTAMETHYL-2,6,8,14-TETRAOXO-3a-[(1E)-PROP-1-ENYL]-1-[4-(4-PYRIDIN-3-YL-1H-IMIDAZOL-1-YL)BUTYL]TETRADECAHYDRO-1H-OXACYCLOTETRADECINO[4,3-D][1,3]OXAZOL-10-YL 3,4,6-TRIDEOXY-3-(DIMETHYLAMINO)-D-XYLO-HEXOPYRANOSIDE], the MIC in experiment [1] is 0.78; in [11] it was “=0.05”; in [2] (unit assumed), 0.78 µg/mL (≈ 0.931 µM); in [12] it was “=0.05”; in experiment [3] (unit assumed) it was 0.2 µg/mL (≈ 0.239 µM); in [4] it was 25 µg/mL (≈ 29.8 µM). Also, the MIC stood at 0.2 in experiment [5] (in µg/mL (unit assumed)); 3.13 in [6]; 3.13 in experiment [7]; 0.4 µg/mL (≈ 0.477 µM) in [8] (unit assumed); 0.78 in [9]; 3.13 in experiment [10]. In addition, the MIC entry in [13] is on record as “=0.05”.
Take `CC[C@H]1OC(=O)[C@H](C)C(=O)[C@H](C)[C@@H](OC2O[C@H](C)C[C@H](N(C)C)[C@H]2O)[C@@](C)(OC)C[C@@H](C)C(=O)[C@H](C)[C@H]2N(CCCCc3ccnc4ccccc34)C(=O)O[C@]12CC` (stereo partly drawn) [Example 15, (3aS,4R,7R,9R,10R,11S,13R,15R,15aR)-3a,4-DIETHYL-11-METHOXY-7,9,11,13,15-PENTAMETHYL-2,6,8,14-TETRAOXO-1-(4-QUINOLIN-4-YLBUTYL)TETRADECAHYDRO-2H-OXACYCLOTETRADECINO[4,3-D][1,3]OXAZOL-10-YL-3,4,6-TRIDEOXY-3-(DIMETHYLAMINO)-D-XYLO-HEXOPYRANOSIDE]: the MIC result in experiment [11] was “=0.05”; in experiment [12], “=0.05”; in experiment [3] it was “=0.05”; in experiment [4] it was 3.13 µg/mL (≈ 3.86 µM); in experiment [5] it was “=0.05”; in experiment [6], 0.2. In addition, the figures for the MIC in experiment [8] (unit assumed), in experiment [9] and in [13] were 0.1 µg/mL (≈ 0.123 µM), 0.1 and “=0.05”, respectively.
Regarding `CC[C@H]1OC(=O)[C@H](C)C(=O)[C@H](C)[C@@H](OC2O[C@H](C)C[C@H](N(C)C)[C@H]2O)[C@@](C)(OC)C[C@@H](C)C(=O)[C@H](C)[C@H]2N(CCCCn3cc(-c4cccnc4)nc3C)C(=O)O[C@]12CC` (stereo partly drawn) [Example 20, (3aS,4R,7R,9R,10R,11S,13R,15R,15aR)-3a,4-diethyl-11-methoxy-7,9,11,13,15-pentamethyl-1-[4-(2-methyl-4-pyridin-3-yl-1H-imidazol-1-yl)butyl]-2,6,8,14-tetraoxotetradecahydro-2H-oxacyclotetradecino[4,3-d][1,3]oxazol-10-yl-3,4,6-trideoxy-3-(dimethylamino)-D-xylo-hexopyranoside], the MIC entry in experiment [11] is listed as “=0.05”; in experiment [2], “=0.5”; in [12], “=0.05”; in experiment [3], “=0.05”; in [5], “=0.05”; in [8] it was “=0.05”. In experiment [13], the MIC result was “=0.05”.
`CC[C@H]1OC(=O)[C@H](C)C(=O)[C@H](C)[C@@H](OC2O[C@H](C)C[C@H](N(C)C)[C@H]2O)[C@@](C)(OC)C[C@@H](C)C(=O)[C@H](C)[C@H]2N(CCCCn3cnc(-c4ccc(F)nc4)c3)C(=O)O[C@]12CC` (stereo partly drawn) [Example 33, (3aS,4R,7R,9R,10R,11S,13R,15R,15aR)-3a,4-DIETHYL-1-14-[4-(6-FLUOROPYRIDIN-3-YL)-1H-IMIDAZOL-1-YL]BUTYL}-11-METHOXY-7,9,11,13,15-PENTAMETHYL-2,6,8,14-TETRAOXOTETRADECAHYDRO-1H-OXACYCLOTETRADECINO[4,3-D][1,3]OXAZOL-10-YL-3,4,6-TRIDEOXY-3-(DIMETHYLAMINO)-D-XYLO-HEXOPYRANOSIDE]: the MIC entry in [2], in experiment [12], in [3] and in experiment [13] was “=0.05” each time.
Consider `CC[C@H]1OC(=O)[C@H](C)C(=O)[C@H](C)[C@@H](OC2O[C@H](C)C[C@H](N(C)C)[C@H]2O)[C@@](C)(OC)C[C@@H](C)C(=O)[C@H](C)[C@H]2N(CCCCc3ncc(-c4cccc(N)c4)s3)C(=O)O[C@]12CC` (stereo partly drawn) [Example 34, (3aS,4R,7R,9R,10R,11S,13R,15R,15aR)-1-{4-[5-(3-AMINOPHENYL)-1,3-THIAZOL-2-YL]BUTYL}-3a,4-DIETHYL-11-METHOXY-7,9,11,13,15-PENTAMETHYL-2,6,8,14-TETRAOXOTETRADECAHYDRO-1H-OXACYCLOTETRADECINO[4,3-D][1,3]OXAZOL-10-YL 3,4,6-TRIDEOXY-3-(DIMETHYLAMINO)-D-XYLO-HEXOPYRANOSIDE], for which the MIC entry in [2], in experiment [12], in experiment [3] and in [13] was “=0.05” in each case.
For the molecule `CC[C@H]1OC(=O)[C@H](C)C(=O)[C@H](C)[C@@H](OC2O[C@H](C)C[C@H](N(C)C)[C@H]2O)[C@@](C)(OC)C[C@@H](C)C(=O)[C@H](C)[C@H]2N(CCCOc3cccc(-c4cccnc4)c3)C(=O)O[C@]12CC` (stereo partly drawn) [Example 35, (3aS,4R,7R,9R,10R,11S,13R,15R,15aR)-3a,4-diethyl-11-methoxy-7,9,11,13,15-pentamethyl-2,6,8,14-tetraoxo-1-[3-(3-pyridin-3-ylphenoxy)propyl]tetradecahydro-1H-oxacyclotetradecino[4,3-d][1,3]oxazol-10-yl-3,4,6-trideoxy-3-(dimethylamino)-D-xylo-hexopyranoside], the MIC entry in experiment [2], in [12] and in [13] was “=0.05” throughout.
